Source: patent publication US10787425B2, “Thiazolidinedione derivative and use thereof” (INDUSTRY-ACADEMIC COOPERATION FOUNDATION CHOSUN UNIVERSITY, priority 2016, dated 2020)

Legend:
15-PGDH = 15-PGDH (Homo sapiens (Human), UniProt P15428); experiment: 15-PGDH inhibitory activity (NADH at 340 nm); assay type: biochemical; conditions: concentration inhibiting 50% of 15-PGDH activity; purified 15-PGDH, 21 μM PGE2, 0.25 mM NAD+
How it was run: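 GST-purified human 15-PGDH (E. coli BL-21 LysS, 10 μg) with 21 μM PGE2 and 0.25 mM NAD+ in 50 mM Tris-HCl pH 7.5, 0.1 mM DTT. Compound tested at 0.0001–64 μM; NADH formation read by absorbance at 340 nm against a standard curve.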

A549 cells = experiment: Measurement of PGE2 concentration in A549 cell medium (ELISA); assay type: cell-based, human; conditions: for Increment %: PGE2 concentration versus PBS control, 5 μM, 12 hours; for PGE2 concentration: inhibitor 5 μM, medium collected after 12 hours, ELISA
How it was run: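 A549 cells in RPMI 1640 with 8% FBS, seeded at 5×10^5 cells/well and grown 24 h at 37° C, 5% CO2; at ~80% confluence treated with 15-PGDH inhibitor at 5 μM in PBS (PBS-only negative control). After 12 h, PGE2 in the medium was measured by ELISA against a standard curve.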

15-PGDH, sequence (P15428 whole entry): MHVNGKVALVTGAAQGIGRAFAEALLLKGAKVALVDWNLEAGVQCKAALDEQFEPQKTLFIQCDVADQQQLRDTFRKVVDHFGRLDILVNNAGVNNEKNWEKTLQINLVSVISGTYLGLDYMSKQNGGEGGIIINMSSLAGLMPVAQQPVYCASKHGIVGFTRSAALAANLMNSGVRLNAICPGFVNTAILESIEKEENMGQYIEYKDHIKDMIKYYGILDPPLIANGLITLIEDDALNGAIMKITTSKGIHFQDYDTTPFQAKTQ

SMILES | IC50 (15-PGDH) [nM] | Increment % (A549 cells) [%] | PGE2 concentration (A549 cells) [pg/mL]
CCOc1cc(/C=C2\SC(=O)NC2=O)ccc1OC(=O)c1ccccc1.O=C(O)c1ccccc1 [Compound 56, (Z)-4-((2,4-dioxothiazolidin-5-ylidene)methyl)-2-ethoxyphenyl benzoate] | 298 | −31.65 | 108.7675
CCOc1cc(/C=C2\SC(=O)NC2=O)ccc1OC(=O)Cc1ccccc1 [Compound 57, (Z)-4-((2,4-dioxothiazolidin-5-ylidene)methyl)-2-ethoxyphenyl 2-phenylacetate] | 118 | −17.46 | 131.3485
CCOc1cc(/C=C2\SC(=O)NC2=O)ccc1OC(=O)CCc1ccccc1 [Compound 58, (Z)-4-((2,4-dioxothiazolidin-5-ylidene)methyl)-2-ethoxyphenyl 3-phenylpropanoate] | 94.3 | 7.97 | 171.8161
CCOc1cc(/C=C2\SC(=O)NC2=O)ccc1OC(=O)CCCCc1ccccc1 [Compound 60, (Z)-4-((2,4-dioxothiazolidin-5-ylidene)methyl)-2-ethoxyphenyl 5-phenylpentanoate] | 58.4 | 88.87 | 300.5549
O=C1NC(=O)/C(=C/c2ccc(OC(=O)C3CC3)cc2)S1 [Compound 61, (Z)-4-((2,4-dioxothiazolidin-5-ylidene)methyl)phenyl cyclopropanecarboxylate] | 1410 | −99.97 | 0.04774
O=C1NC(=O)/C(=C/c2ccc(OC(=O)C3CCCC3)cc2)S1 [Compound 63, (Z)-4-((2,4-dioxothiazolidin-5-ylidene)methyl)phenyl cyclopentanecarboxylate] | 179 | 49.33 | 237.6336
O=C(CC1CCCC1)Oc1ccc(/C=C2\SC(=O)NC2=O)cc1 [Compound 64, (Z)-4-((2,4-dioxothiazolidin-5-ylidene)methyl)phenyl 2-cyclopentylacetate] | 52.1 | 25.34 | 199.4576
O=C(CCC1CCCC1)Oc1ccc(/C=C2\SC(=O)NC2=O)cc1 [Compound 65, (Z)-4-((2,4-dioxothiazolidin-5-ylidene)methyl)phenyl 3-cyclopentylpropanoate] | 23.2 | 78.97 | 284.8007
O=C1NC(=O)/C(=C/c2ccc(OC(=O)C3CCCCC3)cc2)S1 [Compound 66, (Z)-4-((2,4-dioxothiazolidin-5-ylidene)methyl)phenyl cyclohexanecarboxylate] | 88.8 | 2.49 | 132.3901
O=C(CC1CCCCC1)Oc1ccc(/C=C2\SC(=O)NC2=O)cc1 [Compound 67, (Z)-4-((2,4-dioxothiazolidin-5-ylidene)methyl)phenyl 2-cyclohexylacetate] | 30.5 | 8.34 | 139.9468
O=C(CCCC1CCCCC1)Oc1ccc(/C=C2\SC(=O)NC2=O)cc1 [Compound 69, (Z)-4-((2,4-dioxothiazolidin-5-ylidene)methyl)phenyl 4-cyclohexylbutanoate] | 26.1 | 134.45 | 302.8477
O=C(CCCCC1CCCCC1)Oc1ccc(/C=C2\SC(=O)NC2=O)cc1 [Compound 70, (Z)-4-((2,4-dioxothiazolidin-5-ylidene)methyl)phenyl 5-cyclohexylpentanoate] | 50.4 | 69.97 | 219.5565
O=C(Cc1ccccc1)Oc1ccc(/C=C2\SC(=O)NC2=O)cc1 [Compound 72, (Z)-4-((2,4-dioxothiazolidin-5-ylidene)methyl)phenyl 2-phenylacetate] | 108 | −18.07 | 105.832
O=C(CCc1ccccc1)Oc1ccc(/C=C2\SC(=O)NC2=O)cc1 [Compound 73, (Z)-4-((2,4-dioxothiazolidin-5-ylidene)methyl)phenyl 3-phenylpropanoate] | 54.4 | 102.39 | 261.4347
O=C(CCCc1ccccc1)Oc1ccc(/C=C2\SC(=O)NC2=O)cc1 [Compound 74, (Z)-4-((2,4-dioxothiazolidin-5-ylidene)methyl)phenyl 4-phenylbutanoate] | 50.7 | 27.71 | 164.9677
O=C(CCCCc1ccccc1)Oc1ccc(/C=C2\SC(=O)NC2=O)cc1 [Compound 75, (Z)-4-((2,4-dioxothiazolidin-5-ylidene)methyl)phenyl 5-phenylpentanoate] | 92.1 | 23.31 | 159.2841

SMILES | IC50 (15-PGDH) [nM] | Increment % (A549 cells) [%] | PGE2 concentration (A549 cells) [pg/mL]
O=C1NC(=O)/C(=C/c2cccc(OC(=O)C3CC3)c2Cl)S1 [Compound 76, (Z)-2-chloro-3-((2,4-dioxothiazolidin-5-ylidene)methyl)phenyl cyclopropanecarboxylate] | 542 | 3.34 | 123.6726
O=C1NC(=O)/C(=C/c2cccc(OC(=O)C3CCC3)c2Cl)S1 [Compound 77, (Z)-2-chloro-3-((2,4-dioxothiazolidin-5-ylidene)methyl)phenyl cyclobutanecarboxylate] | 482 | 56.54 | 187.3399
O=C1NC(=O)/C(=C/c2cccc(OC(=O)C3CCCC3)c2Cl)S1 [Compound 78, (Z)-2-chloro-3-((2,4-dioxothiazolidin-5-ylidene)methyl)phenyl cyclopentanecarboxylate] | 56.2 | −67.32 | 39.11
O=C(CC1CCCC1)Oc1cccc(/C=C2\SC(=O)NC2=O)c1Cl [Compound 79, (Z)-2-chloro-3-((2,4-dioxothiazolidin-5-ylidene)methyl)phenyl 2-cyclopentylacetate] | 42.8 | −2.34 | 116.875
O=C(CCC1CCCC1)Oc1cccc(/C=C2\SC(=O)NC2=O)c1Cl [Compound 80, (Z)-2-chloro-3-((2,4-dioxothiazolidin-5-ylidene)methyl)phenyl 3-cyclopentylpropanoate] | 34.7 | 97.99 | 236.9453
O=C(CC1CCCCC1)Oc1cccc(/C=C2\SC(=O)NC2=O)c1Cl [Compound 82, (Z)-2-chloro-3-((2,4-dioxothiazolidin-5-ylidene)methyl)phenyl 2-cyclohexylacetate] | 32.7 | 189.97 | 610.1325
O=C(CCCC1CCCCC1)Oc1cccc(/C=C2\SC(=O)NC2=O)c1Cl [Compound 84, (Z)-2-chloro-3-((2,4-dioxothiazolidin-5-ylidene)methyl)phenyl 4-cyclohexylbutanoate] | 22.5 | 16.67 | 245.488
O=C(CCCCC1CCCCC1)Oc1cccc(/C=C2\SC(=O)NC2=O)c1Cl [Compound 85, (Z)-2-chloro-3-((2,4-dioxothiazolidin-5-ylidene)methyl)phenyl 5-cyclohexylpentanoate] | 25.6 | −7.79 | 194.0212
O=C(O)c1ccccc1.O=C1NC(=O)/C(=C/c2cccc(OC(=O)c3ccccc3)c2Cl)S1 [Compound 86, (Z)-2-chloro-3-((2,4-dioxothiazolidin-5-ylidene)methyl)phenyl benzoate] | 54.1 | −12.12 | 184.9103
O=C(Cc1ccccc1)Oc1cccc(/C=C2\SC(=O)NC2=O)c1Cl [Compound 87, (Z)-2-chloro-3-((2,4-dioxothiazolidin-5-ylidene)methyl)phenyl 2-phenylacetate] | 105 | 89.77 | 399.2994
O=C(CCc1ccccc1)Oc1cccc(/C=C2\SC(=O)NC2=O)c1Cl [Compound 88, (Z)-2-chloro-3-((2,4-dioxothiazolidin-5-ylidene)methyl)phenyl 3-phenylpropanoate] | 22.5 | 113.47 | 449.1671
O=C(CCCCc1ccccc1)Oc1cccc(/C=C2\SC(=O)NC2=O)c1Cl [Compound 90, (Z)-2-chloro-3-((2,4-dioxothiazolidin-5-ylidene)methyl)phenyl 5-phenylpentanoate] | 46 | 98.11 | 416.8478
O=C1NC(=O)/C(=C/c2ccc(OC(=O)C3CC3)cc2Cl)S1 [Compound 91, (Z)-3-chloro-4-((2,4-dioxothiazolidin-5-ylidene)methyl)phenyl cyclopropanecarboxylate] | 1080 | −4.5498 | 106.5773
O=C1NC(=O)/C(=C/c2ccc(OC(=O)C3CCC3)cc2Cl)S1 [Compound 92, (Z)-3-chloro-4-((2,4-dioxothiazolidin-5-ylidene)methyl)phenyl cyclobutanecarboxylate] | 206 | −57.6754 | 47.26
O=C1NC(=O)/C(=C/c2ccc(OC(=O)C3CCCC3)cc2Cl)S1 [Compound 93, (Z)-3-chloro-4-((2,4-dioxothiazolidin-5-ylidene)methyl)phenyl cyclopentanecarboxylate] | 71 | 2.9785 | 114.9832
